Laboratory results reported in patent US9067920B2, “Compounds useful for inhibiting Chk1” (Eli Lilly and Company, priority 2010, dated 2015).
pEC50: −log10 of the molar value. Structures can show the parent of a compound that is named as a salt.

Columns and labels:
HeLa cells = test: Doxorubicin-induced G2M checkpoint abrogation HeLa cell-based Acumen assay (pHH3); details: 125 nM doxorubicin, 7 h compound
Method: An inhibitor of Chk1 will disable the G2M DNA damage checkpoint in p53-minus tumor cells treated with the topoisomerase II inhibitor, doxorubicin. A measurement of G2M checkpoint abrogation is the phosphorylation of histone H3 on serine 10 that occurs after cells traverse the G2M checkpoint and enter mitosis. The following high content imaging assay can be used to measure the phosphorylation histone H3 in cells. HeLa cells are cultured in MEM Media supplemented with 10% (v/v) FBS and plated at 2000 cells per well in poly D-lysine coated clear bottom black plates, 100 μL volume per well. Plates are then incubated in a cell culture incubator for 18-24 h (37° C., 5% CO2 and 95% relative humidity), Following the initial incubation, 20 μL of MEM Media plus 10% FBS containing […] doxorubicin are added to the appropriate wells of the plates resulting in a final concentration of 125 nM. The plates are returned to the incubator for 24 h, sufficient to arrest the cells at the G2M checkpoint. The next day the cells are treated 1.0 with compounds. Compounds are solubilized at […] in 100% DMSO and then diluted to a 10× stock starting at 50 μM in MEM plus 4% (v/v) DMSO. Subsequently, serial dilutions of the compounds (1:2) are prepared over a 50 μM to 0.39 μM range. Thirteen μL of compound stock is added to the appropriate wells in the plate to produce a final DMSO concentration of 0.4% and a final compound concentration range between 5 and 0.039 μM. […] Plates are scanned with ACUMEN EXPLORER™ Laser-scanning fluorescence microplate cytometers using 488 nm excitation (TTP LABTECH LTC) to measure pHH3 and DNA content including 2N, and 4N, The pHH3 positive cells are identified by mean intensity at 519 nm from Alexa 488. […] The final readout for each population is determined by normalizing to the % of total cells producing a final assay output of % pHH3, % 2N, and % 4N. 100% activity is then determined by treating cells with the maximum concentration of an inhibitor control compound at 100 nM to determine the final % activity of each compound. […]

[1] = system: Calu-6 lung tumor xenograft; test: Calu-6 tumor xenograft model, oral administration of Chk1 inhibitor; type: in vivo, nude mice
Method: The ability of Chk1 inhibitors to potentiate tumor killing by DNA damaging agents can be determined in vivo using the Calu-6 lung and HT-29 colon tumor xenograft efficacy models. Calu-6 lung cancer cells are cultured in growth media (MEM with Earle's Balanced Salt Solution with L-glutamine supplemented with 10% (v/v) heat inactivated FBS, 1×MEM non-essential amino acids, 1× sodium pyruvate) and HT-29 colon cancer cells (ATCC) are cultured in growth media, (McCoy's 5A medium supplemented with 10% FBS) and expanded.
Cells are harvested and washed twice with phosphate buffered saline and 5×10^6 cells (HT-29) or 1×10^6 a cells (Calu-6) in growth media (without serum) are mixed with equal volume of BD Matrigel™ matrix, then injected subcutaneously into the flank of nude mice (CD-1 nu/nu).
At about day 16 after implant (150-200 mm^3), gemcitabine is formulated fresh in saline daily and administered to animals by intraperitoneal route at 40 mg/kg dose. Twenty four hours later animals are administered Chk1 compound, in 0.2% Tween-80/0.5% methylcellulose by the oral route MD. After three days of rest, dosing was repeated for three additional cycles (Q5Dx4 with the compound of Example 3 offset+24 hours). Tumor growth inhibition (TGI) is calculated as described in the previous paragraph. Compounds within the scope of the invention are tested in this assay run substantially as above.

pEC50 (HeLa cells; Homo sapiens, HeLa, 7 h) | pEC50 (HeLa cells; acetic acid salt) | SMILES | % TGI at day 37 ([1]; Calu6, Example 3 30 mpk oral alone) | anti-tumor activity in combination with gemcitabine ([1]; Calu-6 xenograft, oral, gemcitabine 40 mg/kg ip)
7.54 | – | COc1nc(C)ccc1-c1cc(Nc2cncc(O[C@@H]3CCCNC3)n2)[nH]n1 [Example 1, (R)-[5-(2-Methoxy-6-methyl-pyridin-3-yl)-2H-pyrazol-3-yl]-[6-(piperidin-3-yloxy)-pyrazin-2-yl]-amine] | – | –
– | 7.72 | COc1nc(C)ccc1-c1cc(Nc2cncc(O[C@@H]3CCCNC3)n2)[nH]n1 [Example 3, (R)-[5-(2-Methoxy-6-methyl-pyridin-3-yl)-2H-pyrazol-3-yl]-[6-(piperidin-3-yloxy)-pyrazin-2-yl]-amine acetic acid salt] | 37% | excellent dose dependent anti-tumor activity
